In one series the test system is MCL-1L (37 kDa). The experiment in a line: Ex vivo Western blot of tumour tissues, MCL-1L. In kind it is in vivo, mice. As to conditions: pooled tumour samples. As to the method:
Frozen tumour samples were homogenized by a bench blender IKA DI25 (IKA-Werke, Germany) in the presence of a lysis buffer [cOmplete Protease Inhibitor Cocktail (Roche, Germany), 50 mM Tris-HCl pH 7.5, 1 mM EGTA, 1 mM EDTA, 1 mM sodium orthovanadate, 50 mM sodium fluoride, 5 mM sodium pyrophosphate, 270 mM sucrose, 0.5% (v/v) Triton X-100]. Subsequently, the blended samples were centrifuged at 9.000 g at 4°C for 15 min. The supernatants were collected and the protein concentration was measured by the Brandford’s method using the Brandford reagent (Amresco, USA) according to the manufacturer’s manual. The measured samples were stored at -80°C for the following experiments.
The expression of caspase 3, MCL-1, p53, and β-actin as loading control were evaluated by Western blot analysis and immunodetection. Lysates were mixed with a denaturing loading dye [250 mM Tris-HCl pH 6.8, 5% (v/v) β-mercaptoethanol, 10% (w/v) sodium dodecyl sulfate, 30% (v/v) glycerol, 0.04% (w/v) bromophenol blue], heated for 5 min at 70°C. To eliminate intra-species variability, and to obtain the same amount of proteins from all experimental groups, all samples from one group of animals were pooled together and loaded onto a 15% polyacrylamide denaturing gel. The final protein amount was 50 μg per well. After protein separation in the gel, they were transferred on the Immun-Blot polyvinylidene difluoride membrane 0.2 μm (Bio-Rad, USA). Then, the membrane was blocked by 5% (w/v) BSA in TBST [10 mM Tris-HCl pH 7.5, 150 mM NaCl, 0.1% (v/v) Tween-20]. […] HRP was detected by Clarity Western ECL Substrate (Bio-Rad, USA) using chemiluminescent documentation system Syngene PXi-4 (UK).

Series [1] concerns cisplatin-resistant HCT116 colon cancer cell line. Also noted: method as in PMID 26226326. The settings on record: cited from earlier work.
For series [2], the system named is cisplatin-sensitive HCT116 colon cancer cell line. Also noted: method as in PMID 26226326. The settings on record: cited from earlier work.
Series [3] can be described thus: Hydrolytic stability by 1H NMR. The class given is physicochemical. The settings on record: 20% DMF-d7/80% D2O, after 48 h.
Series [4] in a line: Hydrophobicity studies (logP determination), octanol/water, ICP-MS. The class given is physicochemical. The settings on record: octanol/water (0.2 M KI). As for the experimental part:
Complexes 4 and 6 (1 mmol) were ultrasonicated for 15 min in 10 mL of OSW, centrifuged and supernatants were collected. Aliquots (5 mL) of the obtained OSW solutions of complexes 4 and 6 were added to WSO (5 mL) and shaken for 2 h at ambient temperature. After that, the mixtures were centrifuged and aqueous layer was separated carefully. The platinum concentration was determined from OSW aliquots taken before ([Pt]OSWb) and after ([Pt]OSWa) partition by ICP-MS (ICP-MS spectrometer 7700x, Agilent) with the obtained values corrected for the adsorption effects. logP = log([Pt]WSO/[Pt]OSWa) equation was used for the partition coefficients calculation; [Pt]WSO = [Pt]OSWb−[Pt]OSWa. The experiments were conducted in triplicate.

pIC50: −log10 of the molar value.

For the compound `Cc1cc2c(Cl)cc[n+]([Pt-2]([I])([I])[n+]3ccc(Cl)c4cc(C)[nH]c43)c2[nH]1` [Complex 8, cis-[PtI2(2Me4Claza)2]], the “MCL-1L level in tumour tissue” value in the series on MCL-1L (37 kDa) is reported as “considerably increased”.
Usually pIC50 stands for the IC50 on a negative log10 scale, so that one unit is a factor of ten. On to `N.N.[Cl][Pt][Cl]` [Cisplatin, cisplatin, reference compound], for which the pIC50 in series [1] was 4.66; in series [2] it was 5.12.
As to `Brc1cc[n+]([Pt-2]([I])([I])[n+]2ccc(Br)c3cc[nH]c32)c2[nH]ccc12` [Complex 6, cis-[Pt(4Braza)2I2]], the “fraction of complex hydrolyzed” value in series [3] was approximately 10%. Also, the “MCL-1L level in tumour tissue” value in the series with MCL-1L (37 kDa) was “negligible effect”. In addition, the logP entry in series [4] is “–0.07”.

Values taken from article PMC5131915, “Platinum(II) Iodido Complexes of 7-Azaindoles with Significant Antiproliferative Effects: An Old Story Revisited with Unexpected Outcomes” (PLoS ONE, 2016).
